The results in this text go back to patent US7371773B2, “Breast cancer resistance protein (BCRP) inhibitor” (Kabushiki Kaisha Yakult Honsha, priority 2003, dated 2008).

The test system of one test is MES-SA/Dx5 cell line. Nature of the test: Effect on multidrug resistance of MES-SA/Dx5 cell line. As to conditions: Homo sapiens; paclitaxel resistance, MES-SA/Dx5 (P-glycoprotein overexpression), 48 hours; read-out: Resistance overcoming effect EC50. The class given is cell-based. The protocol: Human uterine cancer MES-SA cell line or MES-SA/Dx5 cell line which had acquired multidrug resistance through overexpression of P-glycoprotein [Cancer Res. 45, 4091-4096 (1985)] was suspended in 10% FBS/DMEM, and the resultant suspension was inoculated into a 96-well microplate, followed by culturing at 5% CO2 and 37° C. overnight (3×10^3 cells/50 μL/well). Thereafter, a solution of a diphenylacrylonitrile derivative and paclitaxel in 10% FBS/DMEM (25 μL) was added to each of the wells, followed by culturing at 5% CO2 and 37° C. for 48 hours. After completion of culturing, the number of viable cells was counted by use of TetraColor ONE according to the attached instruction manual.

Another test deals with P388/BCRP cell line. Nature of the test: Overcoming anticancer drug resistance in vivo (survival of tumor-implanted mice). Set-up: species or system CDF1 mice. The following applies: compound 100 mg/kg/day + CPT-11 20 mg/kg/day i.p. once a day, 10 administrations.
Another test has as its system A549/SN-38-4 cell line. Nature of the test: Overcoming anticancer drug resistance of A549/SN-38-4 cell line. The following applies: for EC50: Homo sapiens, A549, read-out: Resistance overcoming effect EC50. The class given is cell-based, human. The protocol:
The effect of a diphenylacrylonitrile derivative on BCRP-mediated anticancer drug resistance was studied by use of the human lung cancer A549/SN-38-4 cell line, which had acquired anticancer drug resistance through BCRP expression. The human lung cancer A549 cell line or the A549/SN-38-4 cell line was suspended in 10% FBS/Ham's F-12, and the resultant suspension was inoculated into a 96-well microplate, followed by culturing at 5% CO2 and 37° C. overnight (2×10^3 cells/50 μL/well). Thereafter, a 10% FBS/Ham's F-12 solution (25 μL) containing a diphenylacrylonitrile derivative and SN-38 or mitoxantrone was added to each of the wells, followed by culturing at 5% CO2 and 37° C. for 48 hours. After completion of culturing, the number of viable cells was counted by use of TetraColor ONE according to the attached instruction manual. […] The greater the relative resistance value, the higher the level of acquired resistance.

Setting [1] is: SN-38 resistance, concentration for 50% reduction of relative resistance value, 48 hours.

Converted amounts (≈) assume the structure as drawn. Structures can show the parent of a compound that is named as a salt. Where two headings read alike, the source gives them in different places.

For the compound `COc1ccc(/C(C#N)=C/c2ccc(O)cc2)cc1OC` [Compound 1, (Z)-2-(3,4-dimethoxyphenyl)-3-(4-hydroxyphenyl)acrylonitrile], the EC50 with MES-SA/Dx5 cell line was above 1 µg/mL; with A549/SN-38-4 cell line (setting [1]) it was 0.051 µg/mL (≈ 0.181 µM). Moreover, in the test on P388/BCRP cell line (Table 6), the “Survival days Mean ± S.D.” value was 19.4 ± 1.1 days. Also, in the test on P388/BCRP cell line (Table 6), the T/C worked out at 162%. For `COc1ccc(/C(C#N)=C/c2ccc(OC(=O)N3CCC(N4CCCCC4)CC3)cc2)cc1OC` [Compound 2, 4-[(Z)-2-cyano-2-(3,4-dimethoxy-phenyl)-vinyl]-phenyl [1,4′]bipiperidinyl-1′-carboxylate], the EC50 is above 1 µg/mL in the test on MES-SA/Dx5 cell line and 0.41 µg/mL (≈ 0.862 µM) in the test with A549/SN-38-4 cell line (setting [1]). Consider `COc1ccc(/C(C#N)=C/c2ccc(OC(C)=O)cc2)cc1OC` [Compound 3, 4-[(Z)-2-cyano-2-(3,4-dimethoxy-phenyl)-vinyl]-phenyl acetate], for which, in the test on MES-SA/Dx5 cell line, the EC50 is above 1 µg/mL. Moreover, in the test with P388/BCRP cell line (Table 6), the “Survival days Mean ± S.D.” value amounted to 19.8 ± 0.8 days and the T/C was 165%. Further, the concentration for a half-maximal effect (EC50) with A549/SN-38-4 cell line (setting [1]) amounted to 0.02 µg/mL.

Consider `COCCOCOc1ccc(/C=C(\C#N)c2ccc(OC)c(OC)c2)cc1` [Compound 4, (Z)-2-(3,4-dimethoxy-phenyl)-3-[4-(2-methoxy-ethoxymethoxy)-phenyl]-acrylonitrile], for which the figures for the EC50 with MES-SA/Dx5 cell line and with A549/SN-38-4 cell line (setting [1]) were above 1 µg/mL and 0.079 µg/mL (≈ 0.214 µM), respectively. Regarding `COc1ccc(/C(C#N)=C/c2ccccc2O)cc1OC` [Compound 6, (Z)-2-(3,4-dimethoxy-phenyl)-3-(2-hydroxy-phenyl)-acrylonitrile], the EC50 was above 1 µg/mL with MES-SA/Dx5 cell line and 0.098 µg/mL (≈ 0.348 µM) in the test with A549/SN-38-4 cell line (setting [1]). For `COc1ccc(/C(C#N)=C/c2cccc(O)c2OC)cc1OC` [Compound 9, (Z)-2-(3,4-dimethoxy-phenyl)-3-(3-hydroxy-2-methoxy-phenyl)-acrylonitrile], in that order: above 1 µg/mL and 0.028 µg/mL (≈ 0.0899 µM). For `COc1ccc(/C(C#N)=C/c2cc(C)c(O)c(C)c2)cc1OC` [Compound 10, (Z)-2-(3,4-dimethoxy-phenyl)-3-(4-hydroxy-3,5-dimethyl-phenyl)-acrylonitrile], in that order: above 1 µg/mL and 0.023 µg/mL (≈ 0.0743 µM). In the case of `COc1ccc(/C(C#N)=C/c2ccc(Br)cc2)cc1OC` [Compound 12, (Z)-3-(4-bromo-phenyl)-2-(3,4-dimethoxy-phenyl)-acrylonitrile], the EC50 is above 1 µg/mL in the test with MES-SA/Dx5 cell line and 0.28 µg/mL (≈ 0.813 µM) with A549/SN-38-4 cell line (setting [1]). For `CCCCOc1ccc(/C(C#N)=C/c2ccc(O)cc2)cc1` [Compound 14, (Z)-2-(4-butoxy-phenyl)-3-(4-hydroxy-phenyl)-acrylonitrile], the 50% effective concentration (EC50) in the test on MES-SA/Dx5 cell line was above 1 µg/mL; in the test on A549/SN-38-4 cell line (setting [1]) it was 0.047 µg/mL (≈ 0.16 µM). Take `COc1cc(/C(C#N)=C/c2ccc(O)cc2)cc(OC)c1OC` [Compound 15, (Z)-3-(4-hydroxy-phenyl)-2-(3,4,5-trimethoxy-phenyl)-acrylonitrile]: the EC50 in the test with MES-SA/Dx5 cell line was above 1 µg/mL; in the test with A549/SN-38-4 cell line (setting [1]), 0.023 µg/mL (≈ 0.0739 µM). As to `COc1ccc(/C(C#N)=C/c2cccc(N)c2)cc1OC` [Compound 57, (Z)-3-(3-amino-phenyl)-2-(3,4-dimethoxy-phenyl)-acrylonitrile], in the test on P388/BCRP cell line (Table 7), the “Survival days Mean ± S.D.” value is on record as 18.8 ± 0.8 days and the T/C worked out at 145%. Moreover, in the test on A549/SN-38-4 cell line (setting [1]), the EC50 was determined as 0.037 µg/mL (≈ 0.132 µM). On to `COc1ccc(/C=C(\C#N)c2ccc(OC(C)=O)c(F)c2)cc1OC` [Compound 64, 4-[(Z)-1-cyano-2-(3,4-dimethoxy-phenyl)-vinyl]-2-fluoro-phenyl acetate], for which, in the test on A549/SN-38-4 cell line (setting [1]), the EC50 is 0.01 µg/mL. Consider `COc1cc(/C(C#N)=C/c2ccc(OC(C)=O)cc2)cc(OC)c1OC` [Compound 65, 4-[(Z)-2-cyano-2-(3,4,5-trimethoxy-phenyl)-vinyl]-phenyl acetate], for which the EC50 in the test with A549/SN-38-4 cell line (setting [1]) amounted to 0.2 µg/mL. Same read-out and setting: to `CCOC(=O)CCCCCCOc1ccc(/C=C(\C#N)c2ccc(OC)c(OC)c2)cc1` [Compound 66, ethyl 7-[4-[(Z)-2-cyano-2-(3,4-dimethoxy-phenyl)-vinyl]-phenoxy]-heptanoate] belongs 0.71 µg/mL (≈ 1.62 µM); to `COc1ccc(/C=C(\C#N)c2ccc(OC(=O)CCCCCCCBr)cc2)cc1OC` [Compound 67, 4-[(Z)-1-cyano-2-(3,4-dimethoxy-phenyl)-vinyl]-phenyl 8-bromo-octanoate], 0.065 µg/mL (≈ 0.134 µM).

`COc1ccc(/C(C#N)=C/c2cccc(N)c2)cc1OC` [Compound 68, (Z)-3-(3-amino-phenyl)-2-(3,4-dimethoxy-phenyl)-acrylonitrile hydrochloride]: the “Survival days Mean ± S.D.” value in the test with P388/BCRP cell line (Table 7, hydrochloride) is 18.8 ± 2.9 days. Besides, in the test with A549/SN-38-4 cell line, the “Resistance overcoming effect EC50” value came to 0.048 µg/mL. `COc1ccc(/C(C#N)=C/c2ccc(OP(=O)(O)O)cc2)cc1OC` [Compound 70, mono-{4-[(Z)-2-cyano-2-(3,4-dimethoxy-phenyl)-vinyl]-phenyl} phosphate]: the “Resistance overcoming effect EC50” value with A549/SN-38-4 cell line was determined as 0.24 µg/mL. On the same count and under the same terms, the value for `COc1ccc(/C(C#N)=C/c2ccc(OP(=O)(O)O)c(OC)c2)cc1OC` [Compound 71, mono-{4-[(Z)-2-cyano-2-(3,4-dimethoxy-phenyl)-vinyl]-2-methoxy-phenyl} phosphate] was 0.29 µg/mL. As for `COc1ccc(C(C#N)=Cc2cccc(NC(C)=O)c2)cc1OC` [Compound 72, N-[3-[2-cyano-2-(3,4-dimethoxy-phenyl)-vinyl]-phenyl]-acetamide], the EC50 with A549/SN-38-4 cell line (setting [1]) is 0.028 µg/mL (≈ 0.0869 µM). Regarding `CCN(CC)CC.COc1ccc(/C(C#N)=C/c2ccc(OS(=O)(=O)O)cc2)cc1OC` [Compound 74, sulphoric acid mono-{4-[(Z)-2-cyano-2-(3,4-dimethoxy-phenyl)-vinyl]-phenyl} ester triethylammonium salt], the “Resistance overcoming effect EC50” value in the test on A549/SN-38-4 cell line (setting [1]) is above 1.0 µg/mL. In the case of `COc1ccc(/C(C#N)=C/c2cc([N+](=O)[O-])ccc2O)cc1OC` [Compound 76, (Z)-2-(3,4-dimethoxy-phenyl)-3-(2-hydroxy-5-nitro-phenyl)-acrylonitrile], the EC50 in the test with A549/SN-38-4 cell line (setting [1]) is 0.82 µg/mL (≈ 2.51 µM). On to `COc1ccc(/C(C#N)=C/c2ccc(F)c([N+](=O)[O-])c2)cc1OC` [Compound 77, (Z)-2-(3,4-dimethoxy-phenyl)-3-(4-fluoro-3-nitro-phenyl)-acrylonitrile], for which, in the test with A549/SN-38-4 cell line (setting [1]), the EC50 is 0.3 µg/mL (≈ 0.914 µM). `COc1ccc(/C(C#N)=C/c2cc(O)c(OC)c(OC)c2)cc1OC` [Compound 78, (Z)-2-(3,4-dimethoxy-phenyl)-3-(3-hydroxy-4,5-dimethoxy-phenyl)-acrylonitrile]: the EC50 in the test with A549/SN-38-4 cell line (setting [1]) was found to be 0.053 µg/mL (≈ 0.155 µM). Still for that read-out and setting: the value for `COc1ccc(/C(C#N)=C/c2cc(OC)c(O)c(OC)c2)cc1OC` [Compound 79, (Z)-2-(3,4-dimethoxy-phenyl)-3-(4-hydroxy-3,5-dimethoxy-phenyl)-acrylonitrile] was 0.017 µg/mL (≈ 0.0498 µM). With “(Z)-2-(3,4-dimethoxyphenyl)-3-(4-β-D-glucopyranosyl-phenyl)-acrylonitrile [Compound 44]”, in the test with A549/SN-38-4 cell line, the “Resistance overcoming effect EC50” value was 0.024 µg/mL. As to “(Z)-2-(3,4-dimethoxyphenyl)-3-(4-β-maltosyl-phenyl)-acrylonitrile [Compound 51]”, the “Resistance overcoming effect EC50” value with A549/SN-38-4 cell line (setting [1]) came to 0.045 µg/mL.

On to “(Z)-2-(3,4-dimethoxyphenyl)-3-(4-β-maltotriosyl-phenyl)-acrylonitrile [Compound 54]”, for which, in the test on A549/SN-38-4 cell line (setting [1]), the “Resistance overcoming effect EC50” value came out at 0.26 µg/mL.

With “(Z)-2-(3,4-dimethoxyphenyl)-3-[4-(6-phospho-β-D-glucopyranosyl)-phenyl]-acrylonitrile [Compound 73]”, the “Resistance overcoming effect EC50” value in the test on A549/SN-38-4 cell line was determined as 1.0 µg/mL. For “(Z)-2-(3,4-dimethoxyphenyl)-3-[4-(6-phospho-β-D-glucopyranosyl)-phenyl]-acrylonitrile sodium salt [Compound 75]”, the “Resistance overcoming effect EC50” value with A549/SN-38-4 cell line (setting [1]) was above 1.0 µg/mL.

In general, EC50 refers to the concentration at which the effect is half-maximal. Usually T/C stands for the ratio of treated to control.
